Several values for one entry are separate records, joined by “and”; a condition that tells them apart may be missing. Equal entries are not always repeated. Toxic doses and inconclusive results are not listed. The calls were made as follows: active = survival T/C of 150% or more; inactive = T/C below 125% in these data.
System: P388 leukemia ip, CD2F1 mice, survival T/C
Test: NCI In Vivo Anticancer Drug Screen. Data for tumor model P388 Leukemia (intraperitoneal) in CD2F1 (CDF1) mice
Details: endpoint: median survival time, higher = longer survival
Summary of the method: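 Mice carrying the transplanted tumor received test compound or vehicle. Survival was recorded in each group, and the value is the treated-group measurement divided by that of the vehicle-treated control group.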

[1] = dose: 100.0 mg/kg/injection, schedule: Q01DX001 (ip), vehicle: saline with Tween-80
[2] = dose: 200.0 mg/kg/injection, schedule: Q01DX001 (ip), vehicle: saline with Tween-80
[3] = dose: 400.0 mg/kg/injection, schedule: Q01DX001 (ip), vehicle: saline with Tween-80
[4] = dose: 60.0 mg/kg/injection, schedule: Q01DX005 (ip), vehicle: saline with Tween-80
[5] = dose: 120.0 mg/kg/injection, schedule: Q01DX005 (ip), vehicle: saline with Tween-80
[6] = dose: 100.0 mg/kg/injection, schedule: Q01DX009 (ip), vehicle: saline with Tween-80
[7] = dose: 200.0 mg/kg/injection, schedule: Q01DX009 (ip), vehicle: saline with Tween-80
[8] = dose: 100.0 mg/kg/injection, schedule: Q04DX003 (ip), vehicle: Klucel (hydroxypropylcellulose) (HPC)
[9] = dose: 50.0 mg/kg/injection, schedule: Q01DX005 (ip), vehicle: saline with Tween-80
[10] = dose: 100.0 mg/kg/injection, schedule: Q01DX005 (ip), vehicle: saline with Tween-80
[11] = dose: 200.0 mg/kg/injection, schedule: Q01DX005 (ip), vehicle: saline with Tween-80
[12] = dose: 240.0 mg/kg/injection, schedule: Q01DX005 (ip), vehicle: saline with Tween-80
[13] = dose: 100.0 mg/kg/injection, schedule: Q04DX003 (ip), vehicle: saline with Tween-80
[14] = dose: 200.0 mg/kg/injection, schedule: Q04DX003 (ip), vehicle: saline with Tween-80
[15] = dose: 25.0 mg/kg/injection, schedule: Q01DX009 (ip), vehicle: Klucel (hydroxypropylcellulose) (HPC)
[16] = dose: 50.0 mg/kg/injection, schedule: Q01DX009 (ip), vehicle: Klucel (hydroxypropylcellulose) (HPC)
[17] = dose: 100.0 mg/kg/injection, schedule: Q01DX009 (ip), vehicle: Klucel (hydroxypropylcellulose) (HPC)
[18] = dose: 200.0 mg/kg/injection, schedule: Q01DX009 (ip), vehicle: Klucel (hydroxypropylcellulose) (HPC)

Measured: T/C

CC1=CC2OC3CC4OC(=O)/C=C/C=C/C(C(C)O)OCCC5(C)OC5C(=O)OCC2(CC1)C4(C)C31CO1 (stereo unspecified)
inactive: dose: 1.25 mg/kg/injection, schedule: Q01DX005 (ip), vehicle: saline + alcohol 101 % of control | dose: 2.5 mg/kg/injection, schedule: Q01DX005 (ip), vehicle: saline + alcohol 118 % of control

Nc1nnc2nc(CC(=O)Cc3ccccc3)c(CC(=O)Cc3ccccc3)nn12
inactive: dose: 60.0 mg/kg/injection, schedule: Q01DX005 (ip), vehicle: saline 101 % of control | dose: 120.0 mg/kg/injection, schedule: Q01DX005 (ip), vehicle: saline 100 % of control | dose: 240.0 mg/kg/injection, schedule: Q01DX005 (ip), vehicle: saline 100 % of control

O=c1n(-c2ccccc2)c(=O)n2n1C1C3C4CCC1C4(Cl)C32 (stereo unspecified)
inactive: [1] 100 % of control | [2] 94 % of control | [3] 91 % of control

Cc1[nH]c(C)c2c(=O)ccsc12
inactive: [4] 90 % of control | [5] 99 % of control

O=C(CNC(=O)c1ccccc1)OC(C(=O)O)c1ccc(F)cc1 (stereo unspecified)
inactive: dose: 50.0 mg/kg/injection, schedule: Q01DX009 (ip), vehicle: saline with Tween-80 100 % of control | [6] 102 % of control | [7] 96 % of control

Oc1c(Cl)cc(Cl)cc1C=Nc1ccc2c(ccc3c4ccccc4ccc23)c1
inactive: dose: 25.0 mg/kg/injection, schedule: Q04DX003 (ip), vehicle: Klucel (hydroxypropylcellulose) (HPC) 105 % of control | dose: 50.0 mg/kg/injection, schedule: Q04DX003 (ip), vehicle: Klucel (hydroxypropylcellulose) (HPC) 105 % of control | [8] 109 % of control and 86 % of control

O=C(O)C(O)C(O)C(OC1OC(CO)C(O)C(O)C1O)C(O)CO (stereo unspecified)
inactive: dose: 50.0 mg/kg/injection, schedule: Q01DX005 (ip), vehicle: saline 105 % of control | dose: 100.0 mg/kg/injection, schedule: Q01DX005 (ip), vehicle: saline 101 % of control | dose: 200.0 mg/kg/injection, schedule: Q01DX005 (ip), vehicle: saline 102 % of control

COC(=O)C1=C(C(=O)OC)C2CCCOC2=C(C)C1 (stereo unspecified)
inactive: [9] 96 % of control | [10] 95 % of control | [11] 93 % of control

C[Si](C)(C)C#CC(OS(=O)(=O)C(F)(F)F)=C(c1ccccc1)c1ccccc1
inactive: [9] 98 % of control | [10] 99 % of control | [11] 92 % of control

COC(=O)c1cc(-c2ccc(Cl)cc2)n2c(N)nnc2n1
inactive: [4] 100 % of control | [5] 100 % of control | [12] 104 % of control

CCC(c1ccc(OC)cc1)C(NC(=S)Nc1ccc(Cl)cc1)c1ccc(OC)cc1 (stereo unspecified)
inactive: [1] 90 % of control | [2] 90 % of control | [3] 109 % of control

CCCCNC(=O)Nc1ccc(C(=O)OCCCC)cc1
inactive: [13] 100 % of control | [14] 90 % of control

CC(=O)Nc1nc(CCl)cs1
inactive: [15] 100 % of control | [16] 102 % of control | [17] 103 % of control | [18] 110 % of control

CC1=CC(O)(CC(N)=O)C=C(C)C1=O
inactive: dose: 3.13 mg/kg/injection, schedule: Q01DX009 (ip), vehicle: distilled water + Tween-80 100 % of control | dose: 6.25 mg/kg/injection, schedule: Q01DX009 (ip), vehicle: distilled water + Tween-80 100 % of control | dose: 12.5 mg/kg/injection, schedule: Q01DX009 (ip), vehicle: distilled water + Tween-80 99 % of control | dose: 25.0 mg/kg/injection, schedule: Q01DX009 (ip), vehicle: distilled water + Tween-80 100 % of control | dose: 50.0 mg/kg/injection, schedule: Q01DX009 (ip), vehicle: distilled water + Tween-80 100 % of control | dose: 100.0 mg/kg/injection, schedule: Q01DX009 (ip), vehicle: distilled water + Tween-80 108 % of control | dose: 200.0 mg/kg/injection, schedule: Q01DX009 (ip), vehicle: distilled water + Tween-80 108 % of control | dose: 400.0 mg/kg/injection, schedule: Q01DX009 (ip), vehicle: distilled water + Tween-80 108 % of control

CCCCCCCCCCC(=O)CC
inactive: [6] 104 % of control | [13] 100 % of control | [7] 104 % of control | [14] 100 % of control | dose: 400.0 mg/kg/injection, schedule: Q01DX009 (ip), vehicle: saline with Tween-80 109 % of control | dose: 400.0 mg/kg/injection, schedule: Q04DX003 (ip), vehicle: saline with Tween-80 100 % of control

C/[N+]([O-])=C/c1ccccc1
inactive: [8] 104 % of control | dose: 200.0 mg/kg/injection, schedule: Q04DX003 (ip), vehicle: Klucel (hydroxypropylcellulose) (HPC) 106 % of control | dose: 400.0 mg/kg/injection, schedule: Q04DX003 (ip), vehicle: Klucel (hydroxypropylcellulose) (HPC) 108 % of control

CCC(C)C(=O)OC1CC2(C)C(c3ccoc3)OC(=O)CC23OC2(C)OC34C(OC(=O)C(C)C)C3(O)C(OC(=O)C5(C)OC5C)C5(C)CC3(O)C(C)(C5CC(=O)OC)C14O2 (stereo unspecified)
inactive: [15] 93 % of control | [16] 104 % of control | [17] 102 % of control | [18] 99 % of control

COC(=O)CS(=O)(=O)CS(=O)(=O)CC(=O)OC
inactive: dose: 50.0 mg/kg/injection, schedule: Q01DX009 (ip), vehicle: saline 107 % of control | dose: 100.0 mg/kg/injection, schedule: Q01DX009 (ip), vehicle: saline 100 % of control | dose: 200.0 mg/kg/injection, schedule: Q01DX009 (ip), vehicle: saline 97 % of control

COc1cc(C(NC(N)=O)c2cc3c(cc2O)OCO3)cc(OC)c1OC (stereo unspecified)
inactive: [4] 106 % of control | [5] 102 % of control | [12] 100 % of control

CC1(C)CC(=O)C(C(c2ccc3c(c2)OCO3)N2CCOCC2)C(=O)C1 (stereo unspecified)
inactive: dose: 60.0 mg/kg/injection, schedule: Q01DX005 (ip), vehicle: Klucel (hydroxypropylcellulose) (HPC) 117 % of control | dose: 120.0 mg/kg/injection, schedule: Q01DX005 (ip), vehicle: Klucel (hydroxypropylcellulose) (HPC) 109 % of control
